In US4861788A, “Antibacterial 1-normon-2-yl-heterocyclic compounds” (Beecham Group plc, priority 1983, dated 1989):
≈ marks a conversion by molar mass, not a printed value. Like-named read-outs stand apart in the source and are kept apart here.

What was measured:
Strep. uberis SPU1 = assay: MIC against veterinary bacteria in vitro (Diagnostic Sensitivity Test Agar); details: Streptococcus uberis, SPU1, 18 h
Description: (§2) The activity of the normonyl derivatives of the Examples against various veterinarily important bacteria, was assayed in vitro using two-fold serial dilutions in Diagnostic Sensitivity Test Agar inoculated with 10^4 organisms.

Past. haemolytica PA5 = assay: as above; details: Mannheimia haemolytica, PA5, 18 h
Description: as §2

E. coli E1 = assay: as above; details: Escherichia coli, E1, 18 h
Description: as §2

[1] = system: M. bovigenitalium ATCC 14173; assay: MIC against Mycoplasma in vitro (Friis broth with agarose); format: cell-based; details: 144 h; M. bovigenitalium ATCC 14173; 6 days at 37° C; read-out: MIC
[2] = system: M. hyopneumoniae NCTC 101101; assay: as above; format: cell-based; details: Mesomycoplasma hyopneumoniae, NCTC101101, 144 h
M. hyopneumoniae Str. 11 = assay: as above; format: cell-based; details: Mesomycoplasma hyopneumoniae
M. hyopneumoniae JF 435 = assay: as above; format: cell-based; details: Mesomycoplasma hyopneumoniae, JF435, 144 h
M. hyopneumoniae MS 16 = assay: as above; format: cell-based; details: Mesomycoplasma hyopneumoniae, MS16, 144 h
[3] = system: Staph. aureus B4 (pen. resistant); assay: MIC against veterinary bacteria in vitro (Diagnostic Sensitivity Test Agar); details: Staphylococcus aureus, 18 h
Description: as §2

[4] = system: M. hyopneumoniae J2206/183^b; assay: MIC against Mycoplasma in vitro (Friis broth with agarose); format: cell-based; details: Mesomycoplasma hyopneumoniae, 144 h
E. coli ESS = assay: MIC against human bacteria in vitro (nutrient agar, chocolated horse blood); format: cell-based; details: Escherichia coli; human; E. coli ESS; 18 hours at 37° C; read-out: MIC
Description: (§1) The activity of the normonyl derivaties of the Examples against various bacteria which are important in diseases of humans, was assayed in vitro using serial dilutions in nurient agar with 5% chocolated horse blood.

[5] = system: Pasteurella multocida 1633; assay: as above; format: cell-based; details: human; Pasteurella multocida 1633; 18 hours at 37° C; read-out: MIC
Description: as §1

K. aerogenes A = assay: as above; format: cell-based; details: Klebsiella aerogenes; human; K. aerogenes A; 18 hours at 37° C; read-out: MIC
Description: as §1

Strep. agalactiae 2788-B = assay: as above; format: cell-based; details: Streptococcus agalactiae; human; Strep. agalactiae 2788-B; 18 hours at 37° C; read-out: MIC
Description: as §1

Staph. aureus Oxford [6] = assay: as above; format: cell-based; details: Staphylococcus aureus; human; Staph. aureus Oxford; 18 hours at 37° C; read-out: MIC
Description: as §1

Sarcina lutea 8340 = assay: as above; format: cell-based; details: Micrococcus luteus; human; Sarcina lutea 8340; 18 hours at 37° C; read-out: MIC
Description: as §1

Strep. faecalis I = assay: as above; format: cell-based; details: Enterococcus faecalis; human; Strep. faecalis I; 18 hours at 37° C; read-out: MIC
Description: as §1

[7] = system: Ps. aeruginosa NCTC 10662; assay: as above; format: cell-based; details: Pseudomonas aeruginosa, NCTC10662; human; Ps. aeruginosa NCTC 10662; 18 hours at 37° C; read-out: MIC
Description: as §1

Strep. spp. 64/848-C = assay: as above; format: cell-based; details: human; Strep. spp. 64/848-C; 18 hours at 37° C; read-out: MIC
Description: as §1

Bacillus subtilis 6633 = assay: as above; format: cell-based; details: human; Bacillus subtilis 6633; 18 hours at 37° C; read-out: MIC
Description: as §1

E. coli NCTC 10418 [8] = assay: as above; format: cell-based; details: Escherichia coli, NCTC10418; human; E. coli NCTC 10418; 18 hours at 37° C; read-out: MIC
Description: as §1

[9] = system: Corynebacterium xerosis 9755; assay: as above; format: cell-based; details: human; Corynebacterium xerosis 9755; 18 hours at 37° C; read-out: MIC
Description: as §1

Staph. aureus W2827 = assay: as above; format: cell-based; details: Staphylococcus aureus; human; Staph. aureus W2827; 18 hours at 37° C; read-out: MIC
Description: as §1

[10] = system: Strep. pyogenes R80/421-A; assay: as above; format: cell-based; details: Streptococcus pyogenes; human; Strep. pyogenes R80/421-A; 18 hours at 37° C; read-out: MIC
Description: as §1

[11] = system: Haemophilus influenzae Wy21; assay: as above; format: cell-based; details: human; Haemophilus influenzae Wy21; 18 hours at 37° C; read-out: MIC
Description: as §1

Staph. aureus Russell = assay: as above; format: cell-based; details: Staphylococcus aureus; human; Staph. aureus Russell; 18 hours at 37° C; read-out: MIC
Description: as §1

P. mirabilis 889 = assay: as above; format: cell-based; details: Proteus mirabilis; human; P. mirabilis 889; 18 hours at 37° C; read-out: MIC
Description: as §1

Staph. aureus Oxford [12] = assay: MIC against veterinary bacteria in vitro (Diagnostic Sensitivity Test Agar); details: Staphylococcus aureus, 18 h
Description: as §2

E. coli NCTC 10418 [13] = assay: as above; details: Escherichia coli, NCTC10418, 18 h
Description: as §2

M. hyopneumoniae TAM 6N = assay: MIC against Mycoplasma in vitro (Friis broth with agarose); format: cell-based; details: Mesomycoplasma hyopneumoniae, TAM6N, 144 h
M. hyorhinis ATCC 25021 = assay: as above; format: cell-based; details: Mesomycoplasma hyorhinis, ATCC25021, 144 h; M. hyorhinis ATCC 25021; 6 days at 37° C; read-out: MIC
Bord. bronchiseptica B09 = assay: MIC against veterinary bacteria in vitro (Diagnostic Sensitivity Test Agar); details: Bordetella bronchiseptica, B09, 18 h
Description: as §2

M. dispar NCTC 10125 = assay: MIC against Mycoplasma in vitro (Friis broth with agarose); format: cell-based; details: 144 h
[14] = M. hyopneumoniae NCTC 101101, 6 days at 37° C, read-out: MIC
[15] = 144 h, M. hyopneumoniae Str. 11, 6 days at 37° C, read-out: MIC
[16] = M. hyopneumoniae JF 435, 6 days at 37° C, read-out: MIC
[17] = M. hyopneumoniae MS 16, 6 days at 37° C, read-out: MIC
[18] = M. hyopneumoniae J2206/183^b, 6 days at 37° C, read-out: MIC
[19] = M. hyopneumoniae TAM 6N, 6 days at 37° C, read-out: MIC

Row | Structure (SMILES) | MIC (Strep. uberis SPU1) [µg/mL] | MIC (Past. haemolytica PA5) [µg/mL] | MIC (E. coli E1) [µg/mL] | MIC [3] [µg/mL] | MIC (E. coli ESS) [µg/mL] | MIC [5] [µg/mL] | MIC (K. aerogenes A) [µg/mL] | MIC (Strep. agalactiae 2788-B) [µg/mL] | MIC (Staph. aureus Oxford [6]) [µg/mL] | MIC (Sarcina lutea 8340) [µg/mL] | MIC (Strep. faecalis I) [µg/mL] | MIC [7] [µg/mL] | MIC (Strep. spp. 64/848-C) [µg/mL] | MIC (Bacillus subtilis 6633) [µg/mL] | MIC (E. coli NCTC 10418 [8]) [µg/mL] | MIC [9] [µg/mL] | MIC (Staph. aureus W2827) [µg/mL] | MIC [10] [µg/mL] | MIC [11] [µg/mL] | MIC (Staph. aureus Russell) [µg/mL] | other results
1 | CC(=Cc1nnc(-c2ccc(S(C)(=O)=O)cc2)o1)CC1OCC(CC2OC2C(C)C(C)O)C(O)C1O (stereo not shown) [Example 4, 2-p-Methylsulphonylphenyl-5-(1-normon-2-yl)-1,3,4-oxadiazole A] | 2.5 (≈ 4.78 µM) | 20 (≈ 38.3 µM) | > 80 | 5 (≈ 9.57 µM) | 4 (≈ 7.65 µM) | 4 (≈ 7.65 µM) | > 64 | 16 (≈ 30.6 µM) | 8 (≈ 15.3 µM) | > 64 | > 64 | > 64 | 16 (≈ 30.6 µM) | 16 (≈ 30.6 µM) | > 64 | > 64 | 32 (≈ 61.2 µM) | 16 (≈ 30.6 µM) | 1 (≈ 1.91 µM) | 32 (≈ 61.2 µM) | MIC [1]: 0.25 µg/mL (≈ 0.478 µM); MIC [2, 14]: 0.5 µg/mL (≈ 0.957 µM); MIC (M. hyopneumoniae Str. 11; [15]): 0.25 µg/mL (≈ 0.478 µM); MIC (M. hyopneumoniae JF 435; [16]): 0.25 µg/mL (≈ 0.478 µM); MIC (M. hyopneumoniae MS 16; [17]): 0.1 µg/mL (≈ 0.191 µM); MIC [4, 18]: 0.5 µg/mL (≈ 0.957 µM); MIC (P. mirabilis 889): > 64 µg/mL; MIC (Staph. aureus Oxford [12]): 10 µg/mL (≈ 19.1 µM); MIC (E. coli NCTC 10418 [13]): > 80 µg/mL; MIC (M. hyopneumoniae TAM 6N; [19]): 0.5 µg/mL (≈ 0.957 µM); MIC (M. hyorhinis ATCC 25021): 0.1 µg/mL (≈ 0.191 µM); MIC (Bord. bronchiseptica B09): 10 µg/mL (≈ 19.1 µM)
2 | CC(=Cc1nnc(-c2cccs2)o1)CC1OCC(CC2OC2C(C)C(C)O)C(O)C1O (stereo not shown) [Example 6, 2-(1-Normon-2-yl)-5-(2-thienyl)-1,3,4-oxadiazole A] | 5 (≈ 11.1 µM) | 20 (≈ 44.4 µM) | > 80 | 2.5 (≈ 5.55 µM) | 8 (≈ 17.8 µM) | 2 (≈ 4.44 µM) | > 128 | 32 (≈ 71 µM) | 8 (≈ 17.8 µM) | 32 (≈ 71 µM) | > 128 | > 128 | 32 (≈ 71 µM) | 4 (≈ 8.88 µM) | > 128 | 128 (≈ 284 µM) | 16 (≈ 35.5 µM) | 16 (≈ 35.5 µM) | 2 (≈ 4.44 µM) | 16 (≈ 35.5 µM) | MIC (M. dispar NCTC 10125; M. dispar NCTC 10125, 6 days at 37° C, read-out: MIC): 1 µg/mL (≈ 2.22 µM); MIC [1]: 0.25 µg/mL (≈ 0.555 µM); MIC [2]: 5 µg/mL (≈ 11.1 µM); MIC (M. hyopneumoniae Str. 11; STR.11, 144 h): 2.5 µg/mL (≈ 5.55 µM); MIC (M. hyopneumoniae JF 435): 5 µg/mL (≈ 11.1 µM); MIC (M. hyopneumoniae MS 16): 2.5 µg/mL (≈ 5.55 µM); MIC [4]: 5 µg/mL (≈ 11.1 µM); MIC (P. mirabilis 889): > 128 µg/mL; MIC (Staph. aureus Oxford [12]): 10 µg/mL (≈ 22.2 µM); MIC (E. coli NCTC 10418 [13]): > 80 µg/mL; MIC (M. hyopneumoniae TAM 6N): 5 µg/mL (≈ 11.1 µM); MIC (M. hyorhinis ATCC 25021): 1 µg/mL (≈ 2.22 µM); MIC (Bord. bronchiseptica B09): 80 µg/mL (≈ 178 µM)
3 | CC(=Cc1nnnn1Cc1ccc([N+](=O)[O-])cc1)CC1OCC(CC2OC2C(C)C(C)O)C(O)C1O (stereo not shown) [Example 12, 1-(p-Nitrobenzyl)-5-(1-normon-2-yl)tetrazole A] | 80 (≈ 159 µM) | > 80 | > 80 | > 80 | 100 (≈ 199 µM) | 5 (≈ 9.93 µM) | > 100 | 50 (≈ 99.3 µM) | 100 (≈ 199 µM) | ≥ 100 | > 100 | > 100 | 100 (≈ 199 µM) | 100 (≈ 199 µM) | > 100 | ≥ 100 | 100 (≈ 199 µM) | 50 (≈ 99.3 µM) | 2.5 (≈ 4.96 µM) | ≥ 100 | MIC (M. dispar NCTC 10125): 1 µg/mL (≈ 1.99 µM); MIC [2, 14]: 5 µg/mL (≈ 9.93 µM); MIC (M. hyopneumoniae Str. 11; [15]): 2.5 µg/mL (≈ 4.96 µM); MIC (M. hyopneumoniae JF 435; [16]): 5 µg/mL (≈ 9.93 µM); MIC (M. hyopneumoniae MS 16; [17]): 2.5 µg/mL (≈ 4.96 µM); MIC [4, 18]: 5 µg/mL (≈ 9.93 µM); MIC (P. mirabilis 889): > 100 µg/mL; MIC (Staph. aureus Oxford [12]): > 80 µg/mL; MIC (E. coli NCTC 10418 [13]): > 80 µg/mL; MIC (M. hyopneumoniae TAM 6N; [19]): 5 µg/mL (≈ 9.93 µM); MIC (M. hyorhinis ATCC 25021): 2.5 µg/mL (≈ 4.96 µM); MIC (Bord. bronchiseptica B09): > 80 µg/mL
